Assay results: patent US4243683A, “Tertiary alcohols” (May & Baker Limited, priority 1977, dated 1981)
Several values for one entry are separate records, joined by “and”; a condition that tells them apart may be missing. Identical values can stand only once. Like-named read-outs stand apart in the source and are kept apart here.

How the values were obtained:
[1] = test system: female rats; details: rat, in vivo, po, 1 mg/kg
Method: (§1) In tests, four female rats and one female dog were each dosed orally with compound A at a rate of 1.0 mg/kg animal body weight. Before administration to the animals the compound was dissolved in a minimum quantity of a 1% w/w solution of Tween 80 emulsifier ("Tween" is a registered Trade Mark) in ethanol, and the resulting solution was diluted with distilled water to a concentration of 0.02% w/w.

[2] = test system: female dog; details: in vivo, po, 1 mg/kg
Method: as §1

[3] = test system: uterine contraction in rats; assay: Stimulation of uterine contraction in rats compared with PGE1; assay type: in vivo, rat; details: for Activity (compared with PGE1): intravenous, ratio to PGE1
Method: Pregnant anaesthetised rats were treated with the compounds of the invention by the intravenous or intravaginal route and the activity of each compound in stimulating uterine contraction was compared with that of a standard compound, the expensive prostaglandin E1 (PGE1), and expressed as a ratio.

[4] = test system: Lucilia sericata prepupae; assay: Lucilia pupae, topical treatment of prepupae; assay type: in vivo
Method: Lucilia sericata prepupae (taken from a batch of the insects of which approximately 50% were pupated) in groups of 10 were each treated topically with 1 μl of a solution of a test compound in acetone. Controls were treated with acetone alone. The insects were stored in the dark at 30° C. for 8 days, and then the number of insects which had hatched as normal adult flies, and any other effects, were observed.

[5] = test system: hamsters; assay: Antifertility in hamsters (termination of pregnancy, subcutaneous); assay type: in vivo, hamster; details: Mesocricetus auratus, sc
Method: On the 4th day of pregnancy, hamsters were each injected subcutaneously with an aqueous solution of a compound of formula I (prepared by dissolving the compound in a minimum volume of ethanol and diluting to the appropriate volume with 0.9% w/v saline). On the 7th day of pregnancy the hamsters were killed and their uteri were examined.
Alternatively, the hamsters were dosed on 3 consecutive days (the 3rd, 4th and 5th days of pregnancy) and killed on the 12th day of pregnancy.
The dose required for termination of pregnancy in 50% of the hamsters (ED50) was calculated mathematically.

[6] = test system: ticks (Ornithodoros moubata Murray); assay: Ticks, first instar, fed on blood containing test compound; assay type: in vivo; details: 5.0 μg per 0.3 ml blood, 14 days at 30° C.
Method: First instar ticks (Ornithodoros moubata Murray) were allowed to engorge through a stretched artificial membrane (Parafilm M) on blood at 37° C. and containing a test compound added in a suitable solvent at a rate of 5.0 μg per 0.3 ml blood. Mortality and moulting were observed after 14 days holding at 30° C.

[7] = test system: houseflies (Musca domestica L.); assay: Houseflies, injection in dorsal thorax, mortality and egg hatch; assay type: in vivo; details: for % egg hatch: 48 hours; for % mortality: 24 hours, 1440 min
Method: Adult houseflies (Musca domestica L.) of mixed sex were injected in the dorsal thorax with 1.0 μl of a solution of a test compound in a mixture of acetone and physiological saline (1:1 v/v). Anaesthesia with carbon dioxide was used, and subsequent holding was at 25° C. A source of honey-water was provided. Fly mortality and oviposition were recorded after 24 hours and egg hatching after 48 hours. Similar, control, experiments were carried out using a mixture of acetone and physiological saline alone.

[8] = test system: mosquito larvae (Aedes aegypti L.); assay: Mosquito larvae in water containing test compound; assay type: in vivo; details: 25° C.
Method: Mosquito larvae (Aedes aegypti L.), at the late third or early fourth instar stage, were introduced into water containing a small concentration of a test compound, at 25° C. The water also contained 0.4% v/v acetone which had been employed as the vehicle for the introduction of the test compound. The larvae were fed with dried powdered bovine liver after 2 hours. After 24 hours at 25° C. a mortality count was made, and subsequent metamorphosis and emergence as adults were observed after seven days at 25° C., and compared with controls.

[9] = 288 h, dosed 3rd, 4th and 5th days of pregnancy, examined day 12, read-out: ED50 (dose required for termination of pregnancy in 50% of the hamsters)
[10] = 168 h, dosed 4th day of pregnancy, examined day 7, read-out: ED50 (dose required for termination of pregnancy in 50% of the hamsters)
[11] = Musca domestica, 24 h, 0.5 μg/fly
[12] = Musca domestica, 24 h, 0.25 μg/fly
[13] = test 1, 1.0 μg/prepupa, 8 days at 30° C., control 10

Row | Compound | Activity (compared with PGE1) [3] | % mortality [6] [%] | % moulting normally [6] [%] | % egg hatch ([7]; 0.5 μg/fly) | mortality at 0.5 µg/fly [7, 11] [%] | further results
1 | C[C@@H](C/C=C/C(=O)COc1ccccc1)CCCC(C)(C)O [A, (R)-2-hydroxy-2,6-dimethyl-11-phenoxyundec-8-trans-en-10-one] | 3.7 |  |  |  |  | weight loss [1]: no weight loss; weight loss [2]: no weight loss; times as active as PGE1 ([3]; pervaginal): over 100 times; Number hatched (out of 10) ([4]; test 3, 1.0 μg/prepupa, control 9): 2 out of 10; ED50 [5, 9]: ~2 mg/kg
2 | C[C@@H](C/C=C/C(=O)COc1ccccc1Cl)CCCC(C)(C)O [B, (R)-11-(2-chlorophenoxy)-2-hydroxy-2,6-dimethylundec-8-trans-en-10-one] | 1.2 |  |  |  |  | 
3 | C[C@@H](C/C=C/C(=O)COc1ccc(Cl)cc1)CCCC(C)(C)O [C, (R)-11-(4-chlorophenoxy)-2-hydroxy-2,6-dimethylundec-8-trans-en-10-one] | 0.32 |  |  |  |  | 
4 | CCCCC(C)(C)C(O)/C=C/C[C@H](C)CCCC(C)(C)O (stereo partly drawn) [Compound T, (6R,10RS)-2,6,11,11-tetramethylpentadec-8-trans-ene-2,10-diol] |  |  |  |  |  | ED50 [5, 10]: 2 mg/kg
5 | C[C@@H](C/C=C/C(=O)CCCc1ccccc1)CCCC(C)(C)O [F, (R)-2-hydroxy-2,6-dimethyl-13-phenyltridec-8-trans-en-10-one] | 0.91 |  |  |  |  | 
6 | C[C@@H](C/C=C/C(=O)CCc1ccccc1)CCCC(C)(C)O [G, (R)-2-hydroxy-2,6-dimethyl-12-phenyldodec-8-trans-en-10-one] | 0.67 | 0 | 0 | no eggs | 60 | % egg hatch ([7]; 0.1 μg/fly): 100%; mortality at 0.1 µg/fly ([7]; Musca domestica, 24 h, 0.1 μg/fly): 60%; ED50 [5, 10]: 5 mg/kg; ED50 [5, 9]: 4 mg/kg
7 | C[C@@H](C/C=C/C(=O)Cc1ccccc1)CCCC(C)(C)O [I, (R)-2-hydroxy-2,6-dimethyl-11-phenylundec-8-trans-en-10-one] | 0.09 |  |  |  |  | 
8 | CCCCCC(=O)/C=C/C[C@H](C)CCCC(C)(C)O [J, (R)-2-hydroxy-2,6-dimethylpentadec-8-trans-en-10-one] | 0.02 |  |  |  |  | 
9 | CCCCC(C)(C)C(=O)/C=C/C[C@H](C)CCCC(C)(C)O [K, (R)-2-hydroxy-2,6,11,11-tetramethylpentadec-8-trans-en-10-one] | 0.57 |  |  |  |  | ED50 [5, 9]: < 0.5 mg/kg
10 | C[C@@H](C/C=C/C(=O)CCc1ccc(Cl)cc1)CCCC(C)(C)O [L, (R)-12-(4-chlorophenyl)-2-hydroxy-2,6-dimethyldodec-8-trans-en-10-one] |  | 0 | 0 | no eggs | 80 | 
11 | C[C@@H](C/C=C/C(=O)CCc1cccc(Cl)c1)CCCC(C)(C)O [M, (R)-12-(3-chlorophenyl)-2-hydroxy-2,6-dimethyldodec-8-trans-en-10-one] |  | 0 | 0 | 0% |  | % egg hatch ([7]; 0.25 μg/fly): 100%; % mortality ([7]; 0.5 μg/fly): 80% and 40%; mortality at 0.25 µg/fly [7, 12]: 30%
12 | C[C@@H](C/C=C/C(=O)CCc1ccccc1Cl)CCCC(C)(C)O [N, (R)-12-(2-chlorophenyl)-2-hydroxy-2,6-dimethyldodec-8-trans-en-10-one] |  | 0 | 0 | 100% | 50 | % egg hatch ([7]; 0.25 μg/fly): 100%; % mortality ([7]; 0.5 μg/fly): 60%; mortality at 0.25 µg/fly [7, 12]: 40%
13 | C[C@@H](C/C=C/C(=O)COc1cccc(Cl)c1)CCCC(C)(C)O [O, (R)-11-(3-chlorophenoxy)-2-hydroxy-2,6-dimethylundec-8-trans-en-10-one] | 0.91 |  |  |  |  | 
14 | C[C@@H](C/C=C/C(O)COc1ccccc1)CCCC(C)(C)O (stereo partly drawn) [P, (6R,10RS)-2,6-dimethyl-11-phenoxyundec-8-trans-ene-2,10-diol] | 0.14 | 0 | 0 | no eggs | 50 | Number hatched (out of 10) [4, 13]: 1 out of 10
15 | CCCCCC(O)/C=C/C[C@H](C)CCCC(C)(C)O (stereo partly drawn) [Q, (6R,10RS)-2,6-dimethylpentadec-8-trans-ene-2,10-diol] | 0.05 | 0 | 0 | no eggs | 70 | Number hatched (out of 10) [4, 13]: 0 out of 10; Number hatched (out of 10) ([4]; test 2, 0.2 μg/prepupa, control 7): 6 out of 10; Number hatched (out of 10) ([4]; test 2, 0.4 μg/prepupa, control 7): 5 out of 10; Number hatched (out of 10) ([4]; test 2, 0.6 μg/prepupa, control 7): 1 out of 10; Number hatched (out of 10) ([4]; test 2, 0.8 μg/prepupa, control 7): 0 out of 10; Number hatched (out of 10) ([4]; test 2, 1.0 μg/prepupa, 8 days at 30° C., control 7): 2 out of 10; ED50 [5, 9]: 2 mg/kg
16 | C[C@@H](C/C=C/C(O)CCc1ccccc1)CCCC(C)(C)O (stereo partly drawn) [R, (6R,10RS)-2,6-dimethyl-12-phenyldodec-8-trans-ene-2,10-diol] | 0.14 | 0 | 0 |  |  | % egg hatch ([7]; 0.25 μg/fly): 100%; mortality at 0.25 µg/fly [7, 12]: 40%; larvae killed within 24 hours ([8]; 0.08 parts per million w/v): all; mortality at 0.04 µg/mL ([8]; Aedes aegypti, 24 h, 0.04 parts per million, read-out: larvae killed within 24 hours): ~50%; ED50 [5, 9]: 0.5 mg/kg
17 | C[C@@H](C/C=C/C(O)CCCc1ccccc1)CCCC(C)(C)O (stereo partly drawn) [S, (6R,10RS)-2,6-dimethyl-13-phenyltridec-8-trans-ene-2,10-diol] |  | 29 | 17 |  | 30 | % egg hatch ([7]; 0.25 μg/fly): 100%; % mortality ([7]; 0.5 μg/fly): 40%; mortality at 0.25 µg/fly [7, 12]: 20%
